Results published in article PMC11431137, “[^68Ga]Ga-DOTAGA-Glu(FAPi)2 Shows Enhanced Tumor Uptake and Theranostic Potential in Preclinical PET Imaging” (Diagnostics, 2024).
Several values for one entry are separate records, joined by “and”; a condition that tells them apart may be missing. Equal entries are not always repeated.

Assays:
[1] = tested on: FAP; parameters: method as in PMID 36980775; conditions: cited from earlier work
[2] = tested on: FAP over PREP and DPP; parameters: method as in PMID 38999044; conditions: compared with DOTAGA.(SA.FAPi)2; cited from earlier work
[3] = tested on: endogenously FAP-expressing xenografted mouse model, U87MG; assay: In vivo PET/CT imaging, organ distribution in U87MG xenografted mice
From the text: Six-week-old female NMRI nude mice were purchased (Janvier, Le Genest-Saint-Isle, France) and housed in groups of 4–8 mice in individually ventilated cages under regular lighting conditions. They were fed a standard pathogen-free pellet diet and provided water ad libitum. All animal experiments were approved by The Animal Experiments Inspectorate in Denmark (2021-15-0201-01041). The animals were acclimatized for two weeks before study initiation.
To establish a tumor model, the mice were subcutaneously inoculated on the right flank with a human xenograft glioblastoma U87MG (HTB-14, ATCC, Manassas, VA, USA). These cells were cultivated in Dulbecco’s modified Eagle’s medium (DMEM) supplemented with fetal bovine serum (FBS) and penicillin–streptomycin (Pen/Strep). Tumor growth was monitored two times weekly using calipers.
After adequate tumor establishment, the animals were injected intravenously in the tail vein with 4.49 ± 0.04 MBq [^68Ga]Ga-DOTAGA-Glu(FAPi)2 in a 100 μL phosphate buffer (0.1 M, pH 7) with 1% ethanol (v/v). PET/CT imaging (Inveon, Siemens Healthineers, Knoxville, TN, USA) was performed immediately after injection, and PET data were acquired for 3000 s. The imaging protocol included a dynamic framing setup, with five consecutive frames of 600 s each, resulting in average time intervals of 0–10, 10–20, 20–30, 30–40, and 40–50 min post-injection. During imaging, body temperature was maintained using a heated platform.
PET images were reconstructed using the 3D-OSEM/SP-MAP algorithm, and attenuation correction was performed using the co-registered CT images. The activity concentration was decay-corrected to the time of injection and quantified using Inveon Research Workplace (IRW). Regions of interest were manually drawn on CT images to delineate organs and derive volume and activity. Subsequently, the percentage of injected dose per gram (% ID/g) was calculated for tumor, blood, liver, kidney, and muscle tissues for each frame.
All graphical representations of the data were generated using Prism version 10.1.0 (1994–2023, GraphPad Software, LLC, Boston, MA, USA). The results were expressed as the mean ± standard error of the mean (SEM).

[4] = logD7.4, shake flask method with n-octanol and phosphate-buffered saline (pH 7.4); format: physicochemical; conditions: n-octanol / PBS pH 7.4, shake flask
From the text: The kinetic profile of [^68Ga]Ga-DOTAGA-Glu-(FAPi)2 is explained considering its low lipophilicity, estimated by measuring the logD7.4 value using the shake flask method with n-octanol and phosphate-buffered saline (pH 7.4). The logD7.4 of −2.5 ± 0.05 indicates good hydrophilicity, leading to renal excretion over biliary excretion. […] Moreover, the compound is more hydrophilic than the first-generation dimer [^68Ga]Ga-DOTAGA.(SA.FAPi)2 (−2.0 ± 0.1) ([25]), resulting in lower background uptake and higher tumor-to-background image contrast.

[5] = Stability of radiochemical purity (RCP) post-formulation by radio-HPLC; format: physicochemical; conditions: formulated in phosphate buffer (0.1 M, pH 7) with ethanol
Procedure: Gallium-68 chloride was obtained by eluting the ^68Ge/^68Ga generator (Galliapharm, Eckert & Ziegler, Berlin, Germany) with 0.1 M HCl. Ammonium acetate buffer (0.1 M, pH 5.5), and a DOTAGA-Glu(FAPi)2 stock solution (2 mg/mL) for labeling was prepared using water for ultratrace analysis (Merck, Darmstadt, Germany). [^68Ga]GaCl3 solution in 0.1 M HCl (500 µL, ca. 200 MBq ^68Ga) was mixed with ammonium acetate buffer (80 µL) and DOTAGA-Glu-(FAPi)2 stock solution (4 µL). The resulting mixture was placed on an agitating mixer and shaken at 600 rpm for 5 min at 60 °C. Afterward, the reaction mixture was diluted with 5 mL water and passed through a Strata-X 33 µm polymeric reversed-phase cartridge (Phenomenex, Torrance, CA, USA). The cartridge was rinsed with more water (0.3 mL) and eluted with absolute ethanol (0.5 mL). Ethanol was evaporated under nitrogen flow and gentle heating to 40 °C. The residue was resolubilized in an aliquot of fresh ethanol (20 µL) and further diluted with phosphate buffer (0.1 M, pH 7) to a total volume of 2 mL.
Radiochemical conversion (RCC) for the ^68Ga-labeling process and radiochemical purity (RCP) of the formulated [^68Ga]Ga-DOTAGA-Glu(FAPi)2 were assessed by radio-HPLC.

[6] = 5 min post-injection, Mean±SEM, n = 4 mice
[7] = 5 min post-injection, individual mice M1-M4
[8] = 15 min post-injection, Mean±SEM, n = 4 mice
[9] = 15 min post-injection, individual mice M1-M4
[10] = 25 min post-injection, Mean±SEM, n = 4 mice
[11] = 25 min post-injection, individual mice M1-M4
[12] = 35 min post-injection, Mean±SEM, n = 4 mice
[13] = 35 min post-injection, individual mice M1-M4
[14] = 45 min post-injection, Mean±SEM, n = 4 mice, listed as [68Ga]Ga-DOTAGA-Glu-(FAPi)2
[15] = 45 min post-injection, Mean±SEM, n = 4 mice, listed as [^68Ga]Ga-DOTAGA-Glu-(FAPi)2
[16] = 45 min post-injection, individual mice M1-M4

## N#C[C@@H]1CC(F)(F)CN1C(=O)CNC(=O)c1ccnc2ccc(OCCCCNC(=O)CC[C@H](NC(=O)CCC(C(=O)O)N3CCN(CC(=O)O)CCN(CC(=O)O)CCN(CC(=O)O)CC3)C(=O)NCCCCOc3ccc4nccc(C(=O)NCC(=O)N5CC(F)(F)C[C@H]5C#N)c4c3)cc12 (stereo partly drawn) [DOTAGA-Glu(FAPi)2, 2,2′,2″-(10-(4-(((S)-1,5-bis((4-((4-((2-((S)-2-Cyano-4,4-difluoropyrrolidin-1-yl)-2-oxoethyl)carbamoyl)quinolin-6-yl)oxy)butyl)amino)-1,5-dioxopentan-2-yl)amino)-1-carboxy-4-oxobutyl)-1,4,7,10-tetraazacyclododecane-1,4,7-triyl)triacetic acid]
[1]
  IC50: 260 ± 40 pM
[2]
  selectivity for FAP over PREP and DPP: higher selectivity than DOTAGA.(SA.FAPi)2

## N#C[C@@H]1CC(F)(F)CN1C(=O)CNC(=O)c1ccnc2ccc(OCCCCNC(=O)CC[C@H](NC(=O)CCC(C(=O)O)N3CCN(CC(=O)[O-])CCN(CC(=O)[O-])CCN(CC(=O)[O-])CC3)C(=O)NCCCCOc3ccc4nccc(C(=O)NCC(=O)N5CC(F)(F)C[C@H]5C#N)c4c3)cc12.[68Ga+3] (some centres unmarked) [[^68Ga]Ga-DOTAGA-Glu(FAPi)2]
[3]; [6]
  Organ distribution, bladder: 3.96±0.42 %ID/g
  Organ distribution, kidney: 6.68±0.48 %ID/g
  Organ distribution, liver: 5.83±0.58 %ID/g
  Organ distribution, tumor: 2.55±0.38 %ID/g
  Tumor-to-blood ratio (TBR): 0.46±0.05
  Tumor-to-kidney ratio (TKR): 0.38±0.03
  Tumor-to-liver ratio (TLR): 0.43±0.03
  Tumor-to-muscle ratio (TMR): 3.66±0.13
[3]; [7]
  Organ distribution, bladder: 4.80 %ID/g and 4.51 %ID/g and 3.00 %ID/g and 3.51 %ID/g
  Organ distribution, blood: 5.98 %ID/g
  Organ distribution, kidney: 7.50 %ID/g and 7.11 %ID/g and 6.77 %ID/g and 5.32 %ID/g
  Organ distribution, liver: 6.93 %ID/g and 6.06 %ID/g and 6.15 %ID/g and 4.19 %ID/g
  Organ distribution, tumor: 3.52 %ID/g and 2.54 %ID/g and 1.66 %ID/g
  Tumor-to-blood ratio (TBR): 0.59 and 0.42 and 0.37 and 0.44
  Tumor-to-kidney ratio (TKR): 0.47 and 0.35 and 0.38 and 0.31
  Tumor-to-liver ratio (TLR): 0.51 and 0.41 (2×) and 0.40
  Tumor-to-muscle ratio (TMR): 3.52 and 3.35 and 3.91 and 3.86
[3]; [8]
  Organ distribution, bladder: 25±2.12 %ID/g
  Organ distribution, kidney: 7.08±0.56 %ID/g
  Organ distribution, liver: 4.02±0.15 %ID/g
  Organ distribution, tumor: 4.28±0.37 %ID/g
  Tumor-to-blood ratio (TBR): 0.92±0.10
  Tumor-to-kidney ratio (TKR): 0.61±0.05
  Tumor-to-liver ratio (TLR): 1.06±0.07
  Tumor-to-muscle ratio (TMR): 3.68±0.32
[3]; [9]
  Organ distribution, bladder: 20.10 %ID/g and 25.42 %ID/g and 30.39 %ID/g and 24.10 %ID/g
  Organ distribution, blood: 4.04 %ID/g
  Organ distribution, kidney: 6.09 %ID/g and 6.56 %ID/g and 8.67 %ID/g and 7.01 %ID/g
  Organ distribution, liver: 3.79 %ID/g and 3.93 %ID/g and 4.45 %ID/g and 3.92 %ID/g
  Organ distribution, tumor: 5.16 %ID/g and 3.44 %ID/g and 4.56 %ID/g
  Tumor-to-blood ratio (TBR): 1.04 and 0.69 and 1.13 and 0.84
  Tumor-to-kidney ratio (TKR): 0.75 and 0.60 and 0.59 and 0.49
  Tumor-to-liver ratio (TLR): 1.20 and 1.00 and 1.16 and 0.88
  Tumor-to-muscle ratio (TMR): 3.40 and 3.28 and 4.65 and 3.37
[3]; [10]
  Organ distribution, bladder: 42.54±5.06 %ID/g
  Organ distribution, kidney: 4.02±0.60 %ID/g
  Organ distribution, liver: 3.21±0.11 %ID/g
  Organ distribution, tumor: 4.49±0.45 %ID/g
  Tumor-to-blood ratio (TBR): 1.12±0.15
  Tumor-to-kidney ratio (TKR): 1.14±0.07
  Tumor-to-liver ratio (TLR): 1.40±0.12
  Tumor-to-muscle ratio (TMR): 3.71±0.40
[3]; [11]
  Organ distribution, bladder: 31.21 %ID/g and 41.63 %ID/g and 55.86 %ID/g and 41.46 %ID/g
  Organ distribution, blood: 3.66 %ID/g
  Organ distribution, kidney: 3.47 %ID/g and 3.78 %ID/g and 5.77 %ID/g and 3.07 %ID/g
  Organ distribution, liver: 2.94 %ID/g and 3.20 %ID/g and 3.49 %ID/g and 3.19 %ID/g
  Organ distribution, tumor: 5.65 %ID/g and 3.51 %ID/g and 4.60 %ID/g
  Tumor-to-blood ratio (TBR): 1.46 and 0.76 and 1.26 and 1.01
  Tumor-to-kidney ratio (TKR): 1.33 and 1.11 and 0.98 and 1.14
  Tumor-to-liver ratio (TLR): 1.56 and 1.31 and 1.62 and 1.10
  Tumor-to-muscle ratio (TMR): 3.57 and 3.36 and 4.87 and 3.03
[3]; [12]
  Organ distribution, bladder: 50.28±7.13 %ID/g
  Organ distribution, kidney: 2.78±0.44 %ID/g
  Organ distribution, liver: 2.88±0.08 %ID/g
  Organ distribution, tumor: 4.62±0.51 %ID/g
  Tumor-to-blood ratio (TBR): 1.29±0.21
  Tumor-to-kidney ratio (TKR): 1.70±0.10
  Tumor-to-liver ratio (TLR): 1.60±0.16
  Tumor-to-muscle ratio (TMR): 3.74±0.37
[3]; [13]
  Organ distribution, bladder: 35.81 %ID/g and 47.82 %ID/g and 69.95 %ID/g and 47.53 %ID/g
  Organ distribution, blood: 3.44 %ID/g
  Organ distribution, kidney: 2.39 %ID/g and 2.64 %ID/g and 4.04 %ID/g and 2.06 %ID/g
  Organ distribution, liver: 2.67 %ID/g and 2.93 %ID/g and 3.06 %ID/g and 2.85 %ID/g
  Organ distribution, tumor: 5.95 %ID/g and 3.52 %ID/g and 4.68 %ID/g
  Tumor-to-blood ratio (TBR): 1.85 and 0.85 and 1.36 and 1.11
  Tumor-to-kidney ratio (TKR): 1.96 and 1.64 and 1.47 and 1.71
  Tumor-to-liver ratio (TLR): 1.75 and 1.48 and 1.94 and 1.24
  Tumor-to-muscle ratio (TMR): 3.66 and 3.17 and 4.80 and 3.32
[3]; 45 min post-injection, Mean±SEM, n = 4 mice
  Organ distribution, bladder: 53.81±7.59 %ID/g
[3]; [14]
  Organ distribution, kidney: 2.16±0.21 %ID/g
  Organ distribution, liver: 2.73±0.09 %ID/g
  Organ distribution, tumor: 4.65±0.52 %ID/g
  Tumor-to-blood ratio (TBR): 1.38±0.25
  Tumor-to-kidney ratio (TKR): 2.15±0.08
  Tumor-to-liver ratio (TLR): 1.71±0.17
  Tumor-to-muscle ratio (TMR): 3.88±0.41
[3]; [15]
  Tumor-to-blood ratio (TBR): 1.4 ± 0.3
  Tumor-to-liver ratio (TLR): 1.7 ± 0.2
  Tumor-to-muscle ratio (TMR): 3.9 ± 0.4
[3]; [16]
  Organ distribution, bladder: 39.77 %ID/g and 49.32 %ID/g and 75.38 %ID/g and 50.79 %ID/g
  Organ distribution, kidney: 1.99 %ID/g and 2.17 %ID/g and 2.73 %ID/g and 1.74 %ID/g
  Organ distribution, liver: 2.47 %ID/g and 2.78 %ID/g and 2.91 %ID/g and 2.75 %ID/g
  Organ distribution, tumor: 4.40 %ID/g and 6.01 %ID/g and 3.52 %ID/g and 4.68 %ID/g
  Tumor-to-blood ratio (TBR): 1.19 and 2.06 and 0.88 and 1.38
  Tumor-to-kidney ratio (TKR): 2.35 and 2.03 and 2.20 and 2.02
  Tumor-to-liver ratio (TLR): 1.89 and 1.58 and 2.07 and 1.28
  Tumor-to-muscle ratio (TMR): 3.52 and 3.41 and 5.09 and 3.49
[3]; PET/CT, U87MG tumor-bearing mice
  clearance route: cleared mainly by the kidneys
[4]
  logD7.4: −2.5 ± 0.05
[5]
  RCP stable post-formulation: at least 1 h
